Reference: article PMC5218480 (PLoS ONE, 2017)

System: MV-4-11 cells
Experiment: Gene expression microarray analysis (Affymetrix PrimeView) and GSEA
Type: cell-based, human
Parameters: RFU PODN (11730768_x_at) / Fold change /veh PODN (11730768_x_at) / RFU LINC00158 (11744669_a_at) / Fold change /veh LINC00158 (11744669_a_at) / RFU DUSP10 (11751237_a_at) / Fold change /veh DUSP10 (11751237_a_at) / RFU ID3 (11757404_x_at) / Fold change /veh ID3 (11757404_x_at) / RFU PLEKHG5 (11737974_s_at) / Fold change /veh PLEKHG5 (11737974_s_at) / RFU LRRC4B (11730491_at) / Fold change /veh LRRC4B (11730491_at) / RFU GIMAP4 (11747438_a_at) / Fold change /veh GIMAP4 (11747438_a_at) / RFU KRT8 (11758183_x_at) / Fold change /veh KRT8 (11758183_x_at) / RFU CNN1 (11734310_a_at) / Fold change /veh CNN1 (11734310_a_at) / RFU VPS37D (11726825_at) / Fold change /veh VPS37D (11726825_at) / RFU C10orf10 (11716522_x_at) / Fold change /veh C10orf10 (11716522_x_at) / RFU KIR2DL2 /// KIR2DL4 /// KIR2DL5A /// KIR2DL5B /// KIR2DS1 /// KIR2DS2 /// KIR2DS3 /// KIR2DS4 /// KIR3DL3 /// KIR3DL3 /// KIR3DS1 (11738374_at) / Fold change /veh KIR2DL2 /// KIR2DL4 /// KIR2DL5A /// KIR2DL5B /// KIR2DS1 /// KIR2DS2 /// KIR2DS3 /// KIR2DS4 /// KIR3DL3 /// KIR3DL3 /// KIR3DS1 (11738374_at) / RFU C1QL1 (11718748_at) / Fold change /veh C1QL1 (11718748_at) / RFU TMPRSS4 (11747572_a_at) / Fold change /veh TMPRSS4 (11747572_a_at) / RFU HAMP (11756126_x_at) / Fold change /veh HAMP (11756126_x_at) / RFU RNFT2 (11725882_a_at) / Fold change /veh RNFT2 (11725882_a_at) / RFU NR4A2 (11747474_a_at) / Fold change /veh NR4A2 (11747474_a_at) / RFU ABCC12 (11746883_a_at) / Fold change /veh ABCC12 (11746883_a_at) / RFU TMEM136 (11760407_x_at) / Fold change /veh TMEM136 (11760407_x_at) / RFU CLDN22 /// WWC2 (11732394_at) / Fold change /veh CLDN22 /// WWC2 (11732394_at) / RFU HLA-DPB1 (11760878_x_at) / Fold change /veh HLA-DPB1 (11760878_x_at) / RFU SPINT1 (11716480_a_at) / Fold change /veh SPINT1 (11716480_a_at) / RFU GAP43 (11754022_s_at) / Fold change /veh GAP43 (11754022_s_at) / RFU A4GNT (11735810_at) / Fold change /veh A4GNT (11735810_at) / RFU PRB3 (11715151_x_at) / Fold change /veh PRB3 (11715151_x_at) / RFU TUBB4B (11761932_at) / Fold change /veh TUBB4B (11761932_at) / RFU CAPN14 (11732068_a_at) / Fold change /veh CAPN14 (11732068_a_at) / RFU TMCC2 (11721928_a_at) / Fold change /veh TMCC2 (11721928_a_at) / RFU IRGQ (11745062_a_at) / Fold change /veh IRGQ (11745062_a_at) / RFU FAM174B (11720279_a_at) / Fold change /veh FAM174B (11720279_a_at) / RFU TMPRSS4 (11748680_a_at) / Fold change /veh TMPRSS4 (11748680_a_at) / RFU FAM212B (11763350_a_at) / Fold change /veh FAM212B (11763350_a_at) / RFU PLEKHG5 (11743358_a_at) / Fold change /veh PLEKHG5 (11743358_a_at) / RFU ZSCAN30 (11745921_a_at) / Fold change /veh ZSCAN30 (11745921_a_at) / RFU CMKLR1 (11741424_a_at) / Fold change /veh CMKLR1 (11741424_a_at) / RFU LOC101060620 /// MAPK8IP1 (11723275_at) / Fold change /veh LOC101060620 /// MAPK8IP1 (11723275_at) / RFU SPTSSB (11747773_x_at) / Fold change /veh SPTSSB (11747773_x_at) / RFU PRSS12 (11739890_at) / Fold change /veh PRSS12 (11739890_at) / RFU BIN1 (11741810_x_at) / Fold change /veh BIN1 (11741810_x_at) / RFU WNT11 (11732464_a_at) / Fold change /veh WNT11 (11732464_a_at) / RFU C10orf10 (11716521_a_at) / Fold change /veh C10orf10 (11716521_a_at) / RFU C5orf56 (11738089_at) / Fold change /veh C5orf56 (11738089_at) / RFU CYB561 (11721691_x_at) / Fold change /veh CYB561 (11721691_x_at) / RFU ANKRD19P (11752326_a_at) / Fold change /veh ANKRD19P (11752326_a_at) / RFU OR2T12 /// OR2T33 /// OR2T8 (11738714_s_at) / Fold change /veh OR2T12 /// OR2T33 /// OR2T8 (11738714_s_at) / RFU VCAN (11748164_a_at) / Fold change /veh VCAN (11748164_a_at) / RFU JSRP1 (11732532_at) / Fold change /veh JSRP1 (11732532_at) / RFU KRTAP10-11 (11738290_x_at) / Fold change /veh KRTAP10-11 (11738290_x_at) / RFU MYO3A (11730013_a_at) / Fold change /veh MYO3A (11730013_a_at) / RFU EBF3 (11725865_a_at) / Fold change /veh EBF3 (11725865_a_at) / RFU CAMK2N1 (11719241_x_at) / Fold change /veh CAMK2N1 (11719241_x_at) / RFU C5orf56 (11738088_a_at) / Fold change /veh C5orf56 (11738088_a_at) / RFU OLFML3 (11715873_a_at) / Fold change /veh OLFML3 (11715873_a_at) / RFU LOC100653217 /// NTM (11731650_a_at) / Fold change /veh LOC100653217 /// NTM (11731650_a_at) / RFU MAPK11 (11762145_a_at) / Fold change /veh MAPK11 (11762145_a_at) / RFU FIZ1 (11724087_x_at) / Fold change /veh FIZ1 (11724087_x_at) / RFU OASL (11726364_x_at) / Fold change /veh OASL (11726364_x_at) / RFU SOX15 (11748057_x_at) / Fold change /veh SOX15 (11748057_x_at) / RFU CD79A (11719716_a_at) / Fold change /veh CD79A (11719716_a_at) / RFU HIST1H1D (11736915_at) / Fold change /veh HIST1H1D (11736915_at) / RFU CASKIN2 (11723855_a_at) / Fold change /veh CASKIN2 (11723855_a_at) / RFU LOC730098 (11760151_x_at) / Fold change /veh LOC730098 (11760151_x_at) / RFU OR4N2 (11742367_at) / Fold change /veh OR4N2 (11742367_at) / RFU PRRT2 (11749266_a_at) / Fold change /veh PRRT2 (11749266_a_at) / RFU SNX32 (11753110_a_at) / Fold change /veh SNX32 (11753110_a_at) / RFU CDHR5 (11726645_a_at) / Fold change /veh CDHR5 (11726645_a_at) / RFU RCAN1 (11760418_a_at) / Fold change /veh RCAN1 (11760418_a_at) / RFU FAM167A (11723789_a_at) / Fold change /veh FAM167A (11723789_a_at) / RFU FAM26E (11764081_at) / Fold change /veh FAM26E (11764081_at) / RFU ISYNA1 (11749810_s_at) / Fold change /veh ISYNA1 (11749810_s_at) / RFU ACY1 (11761880_at) / Fold change /veh ACY1 (11761880_at) / RFU 11764098_at / Fold change /veh 11764098_at / RFU SAMD14 (11745864_x_at) / Fold change /veh SAMD14 (11745864_x_at) / RFU NPB (11741838_a_at) / Fold change /veh NPB (11741838_a_at) / RFU TMPRSS6 (11731388_a_at) / Fold change /veh TMPRSS6 (11731388_a_at) / RFU KRTAP10-2 (11738614_at) / Fold change /veh KRTAP10-2 (11738614_at) / RFU ARHGAP8 /// PRR5-ARHGAP8 (11727945_x_at) / Fold change /veh ARHGAP8 /// PRR5-ARHGAP8 (11727945_x_at) / RFU KRTAP5-7 /// NADSYN1 (11734609_at) / Fold change /veh KRTAP5-7 /// NADSYN1 (11734609_at) / RFU RASL12 (11751679_a_at) / Fold change /veh RASL12 (11751679_a_at) / RFU CDKN2B (11736163_a_at) / Fold change /veh CDKN2B (11736163_a_at) / RFU PRF1 (11729649_at) / Fold change /veh PRF1 (11729649_at) / RFU, ZNF638 /// ZNF638-IT1 / Fold change vs veh, ZNF638 /// ZNF638-IT1 / RFU, PANK3 / Fold change vs veh, PANK3 / RFU, SH3YL1 / Fold change vs veh, SH3YL1 / RFU, ZEB2 / Fold change vs veh, ZEB2 / RFU, NRIP1 / Fold change vs veh, NRIP1 / RFU, PTTG1IP / Fold change vs veh, PTTG1IP / RFU, CAPN2 / Fold change vs veh, CAPN2 / RFU, MED14 / Fold change vs veh, MED14 / RFU, SNORA58 / Fold change vs veh, SNORA58 / RFU, C1orf63 / Fold change vs veh, C1orf63 / RFU, LRRFIP1 / Fold change vs veh, LRRFIP1 / RFU, NDUFAF7 / Fold change vs veh, NDUFAF7 / RFU, SLC12A2 / Fold change vs veh, SLC12A2 / RFU, IBTK / Fold change vs veh, IBTK / RFU, ESF1 / Fold change vs veh, ESF1 / Fold change vs veh, TMEM50B / RFU, TAOK1 / Fold change vs veh, TAOK1 / RFU, ACBD3 / Fold change vs veh, ACBD3 / RFU, TMA16 / Fold change vs veh, TMA16 / RFU, RWDD3 / Fold change vs veh, RWDD3 / RFU, BCAT1 / Fold change vs veh, BCAT1 / RFU, EDEM3 / Fold change vs veh, EDEM3 / RFU, TMEM33 / Fold change vs veh, TMEM33 / RFU, WDR75 / Fold change vs veh, WDR75 / RFU, AHCTF1 / Fold change vs veh, AHCTF1 / RFU, TFRC / Fold change vs veh, TFRC / RFU, ZDHHC17 / Fold change vs veh, ZDHHC17 / RFU, NOM1 / Fold change vs veh, NOM1 / RFU, ARL8B / Fold change vs veh, ARL8B / RFU, ZBTB11 / Fold change vs veh, ZBTB11 / RFU, TAMM41 / Fold change vs veh, TAMM41 / RFU, KIAA1704 /// LOC100996395 / Fold change vs veh, KIAA1704 /// LOC100996395 / RFU, ING1 / Fold change vs veh, ING1 / RFU, TRMT61B / Fold change vs veh, TRMT61B / RFU, FUBP3 / Fold change vs veh, FUBP3 / RFU, TP53 / Fold change vs veh, TP53 / RFU, TNKS2 / Fold change vs veh, TNKS2 / RFU, ZFP14 / Fold change vs veh, ZFP14 / RFU, ACTR2 / Fold change vs veh, ACTR2 / RFU, PPP3R1 / Fold change vs veh, PPP3R1 / RFU, PIK3R1 / Fold change vs veh, PIK3R1 / RFU, HNRNPA1 / Fold change vs veh, HNRNPA1 / RFU, RNF170 / Fold change vs veh, RNF170 / RFU, ZNF28 / Fold change vs veh, ZNF28 / RFU, RNGTT / Fold change vs veh, RNGTT / RFU, OGT / Fold change vs veh, OGT / RFU, BRD1 / Fold change vs veh, BRD1 / RFU, MARS / Fold change vs veh, MARS / RFU, ZNF655 / Fold change vs veh, ZNF655 / RFU, FAHD1 / Fold change vs veh, FAHD1 / RFU, BDP1 / Fold change vs veh, BDP1 / RFU, LRRCC1 / Fold change vs veh, LRRCC1 / RFU, ARID1A / Fold change vs veh, ARID1A / RFU, ZNF146 / Fold change vs veh, ZNF146 / RFU, ZNF330 / Fold change vs veh, ZNF330 / RFU, GPN3 / Fold change vs veh, GPN3 / RFU, C9orf123 / Fold change vs veh, C9orf123 / RFU, N4BP2L2 / Fold change vs veh, N4BP2L2 / RFU, ARFIP1 / Fold change vs veh, ARFIP1 / RFU, FAM179B / Fold change vs veh, FAM179B / RFU, BCL10 / Fold change vs veh, BCL10 / RFU, UHRF1BP1L / Fold change vs veh, UHRF1BP1L / RFU, BET1 / Fold change vs veh, BET1 / RFU, CNOT2 / Fold change vs veh, CNOT2 / RFU, ZNF268 / Fold change vs veh, ZNF268 / Fold change vs veh, ZNF507 / RFU, DGCR2 / Fold change vs veh, DGCR2 / RFU, WDSUB1 / Fold change vs veh, WDSUB1 / Fold change vs veh, HSP90B1 /// MIR3652 / RFU, ADSS / Fold change vs veh, ADSS / RFU, GK / Fold change vs veh, GK / RFU, ZNF148 / Fold change vs veh, ZNF148 / RFU, TAF9 / Fold change vs veh, TAF9 / RFU, SLC1A5 / Fold change vs veh, SLC1A5 / RFU, SLMO2 / Fold change vs veh, SLMO2 / RFU, ABCC4 / Fold change vs veh, ABCC4 / RFU, LOC101060439 /// RAP1B / Fold change vs veh, LOC101060439 /// RAP1B / RFU, RFX7 / Fold change vs veh, RFX7 / RFU, GTPBP10 / Fold change vs veh, GTPBP10 / RFU, CNEP1R1 / Fold change vs veh, CNEP1R1 / RFU, BIVM-ERCC5 /// ERCC5 / Fold change vs veh, BIVM-ERCC5 /// ERCC5 / RFU, ILF3 / Fold change vs veh, ILF3 / RFU 11762660_at / Fold change /veh 11762660_at / RFU VCAN (11757783_s_at) / Fold change /veh VCAN (11757783_s_at) / RFU DDX43 (11728927_at) / Fold change /veh DDX43 (11728927_at) / RFU KRT8 (11758188_x_at) / Fold change /veh KRT8 (11758188_x_at) / RFU NKD1 (11759106_at) / Fold change /veh NKD1 (11759106_at) / RFU SRD5A1 (11742802_a_at) / Fold change /veh SRD5A1 (11742802_a_at) / RFU TPSAB1 /// TPSB2 (11721975_s_at) / Fold change /veh TPSAB1 /// TPSB2 (11721975_s_at) / RFU GSTM3 (11746129_a_at) / Fold change /veh GSTM3 (11746129_a_at) / RFU IL23R (11737362_x_at) / Fold change /veh IL23R (11737362_x_at) / RFU TMEM51 (11727254_a_at) / Fold change /veh TMEM51 (11727254_a_at) / RFU PIWIL2 (11732686_x_at) / Fold change /veh PIWIL2 (11732686_x_at) / RFU ORM1 (11744905_x_at) / Fold change /veh ORM1 (11744905_x_at) / RFU CCDC152 (11743942_at) / Fold change /veh CCDC152 (11743942_at) / RFU ECM1 (11717891_a_at) / Fold change /veh ECM1 (11717891_a_at) / RFU IL23R (11748794_a_at) / Fold change /veh IL23R (11748794_a_at) / RFU TNFAIP8L3 (11732012_x_at) / Fold change /veh TNFAIP8L3 (11732012_x_at) / RFU MBOAT4 (11741988_at) / Fold change /veh MBOAT4 (11741988_at) / RFU 11764193_at / Fold change /veh 11764193_at / RFU TMEM53 (11763286_at) / Fold change /veh TMEM53 (11763286_at) / RFU MAGEB2 (11727129_at) / Fold change /veh MAGEB2 (11727129_at) / RFU TMEM200A (11744735_a_at) / Fold change /veh TMEM200A (11744735_a_at) / RFU CCDC152 (11751479_a_at) / Fold change /veh CCDC152 (11751479_a_at) / RFU FAM211A (11726209_a_at) / Fold change /veh FAM211A (11726209_a_at) / RFU RGS16 (11746705_a_at) / Fold change /veh RGS16 (11746705_a_at) / RFU VCAN (11755009_s_at) / Fold change /veh VCAN (11755009_s_at) / RFU RHOB (11743442_s_at) / Fold change /veh RHOB (11743442_s_at) / RFU RGS16 (11720943_a_at) / Fold change /veh RGS16 (11720943_a_at) / RFU RGS16 (11720944_at) / Fold change /veh RGS16 (11720944_at) / RFU, VPS4B / Fold change vs veh, VPS4B / RFU, CREB1 / Fold change vs veh, CREB1 / RFU, DNAJC13 / Fold change vs veh, DNAJC13 / RFU, GNAQ / Fold change vs veh, GNAQ / RFU, CDK5R1 / Fold change vs veh, CDK5R1 / RFU, ZRANB3 / Fold change vs veh, ZRANB3 / RFU, CUL4A / Fold change vs veh, CUL4A / RFU, CCNY / Fold change vs veh, CCNY / RFU, UFL1 / Fold change vs veh, UFL1 / RFU, COG3 / Fold change vs veh, COG3 / RFU, DIAPH2 / Fold change vs veh, DIAPH2 / RFU, SKA2 / Fold change vs veh, SKA2 / RFU, AFF3 / Fold change vs veh, AFF3 / RFU, LMF1 / Fold change vs veh, LMF1 / RFU, IPO11 / Fold change vs veh, IPO11 / RFU, DFFB / Fold change vs veh, DFFB / RFU, FOXP1 / Fold change vs veh, FOXP1 / RFU, CARD8 / Fold change vs veh, CARD8 / RFU, STRN3 / Fold change vs veh, STRN3 / RFU, ADK / Fold change vs veh, ADK / RFU, RASSF2 / Fold change vs veh, RASSF2 / RFU, WIPF1 / Fold change vs veh, WIPF1 / RFU, LARP1B / Fold change vs veh, LARP1B / RFU, RASA1 / Fold change vs veh, RASA1 / RFU, RB1 / Fold change vs veh, RB1 / RFU, PPFIA1 / Fold change vs veh, PPFIA1 / RFU, MAT2A / Fold change vs veh, MAT2A / RFU, CCT5 / Fold change vs veh, CCT5 / RFU, WDR92 / Fold change vs veh, WDR92 / RFU, CUX1 / Fold change vs veh, CUX1 / RFU, TTC7A / Fold change vs veh, TTC7A / RFU, TMEM135 / Fold change vs veh, TMEM135 / RFU, DEPTOR / Fold change vs veh, DEPTOR / RFU, CPM / Fold change vs veh, CPM / RFU, DNAJB6 / Fold change vs veh, DNAJB6 / RFU, CACNA2D3 / Fold change vs veh, CACNA2D3 / RFU, DTX4 / Fold change vs veh, DTX4 / RFU, TFCP2 / Fold change vs veh, TFCP2 / RFU, GMCL1 /// GMCL1P1 / Fold change vs veh, GMCL1 /// GMCL1P1 / RFU, AEBP2 / Fold change vs veh, AEBP2 / RFU, SNHG1 /// SNORD22 /// SNORD25 /// SNORD26 /// SNORD27 /// SNORD28 /// SNORD29 /// SNORD31 / Fold change vs veh, SNHG1 /// SNORD22 /// SNORD25 /// SNORD26 /// SNORD27 /// SNORD28 /// SNORD29 /// SNORD31 / Fold change (Aza/veh), C12orf56 (ProbeSet 11735607_a_at) / Fold change (ACY-1035/veh), C12orf56 (ProbeSet 11735607_a_at) / Fold change (Aza/veh), FGFR1OP (ProbeSet 11751329_s_at) / Fold change (ACY-1035/veh), FGFR1OP (ProbeSet 11751329_s_at) / Fold change (Aza/veh), VPS36 (ProbeSet 11739960_a_at) / Fold change (ACY-1035/veh), VPS36 (ProbeSet 11739960_a_at) / RFU SYPL1 (11715823_x_at) / Fold change /veh SYPL1 (11715823_x_at) / RFU IGFBP7 (11715501_s_at) / Fold change /veh IGFBP7 (11715501_s_at) / RFU REEP3 (11722064_at) / Fold change /veh REEP3 (11722064_at) / RFU IGLL1 (11728026_x_at) / Fold change /veh IGLL1 (11728026_x_at): dose or concentration left out as unconfirmed
Settings: ProbeSet 11723141_at; LIST B

**Q.** `Nc1ncn([C@@H]2O[C@H](CO)[C@@H](O)[C@H]2O)c(=O)n1` [azacitidine] was tested. Which “RFU, ZBTB11” value did it give?
**A.** The value was 125.26 RFU.
